# Assay results as given in patent US6897244B2, “Dihydronootkatone and tetrahydronootkatone as repellents to arthropods” (Board of Supervisors of Louisiana State University and …, priority 2002, dated 2005).
# Tested on: Formosan subterranean termites
# Assay: Petri dish treated/untreated sand bioassay for repelling activity against termites
# Assay type: in vivo, Coptotermes formosanus
# Set-up: key to percent of termites on untreated sand vs expected value of 50% (Chi-Square, p≦0.05): “−” indicates the test was not significantly different from the expected value; “+” indicates the test was significantly different from the expected value
# Protocol: A carton nest (colony A) of Formosan subterranean termites was collected in Algiers, Louisiana in November 1997, and held in 250-liter cans. The cans were filled with pine as a food source, and kept at a temperature range of 24-26° C. Moistened corrugated cardboard rolls were used to retrieve termites from the cans. Once the termites migrated to the cardboard rolls, they were gently knocked from the cardboard rolls into clean rectangular plastic trays (40 cm×50 cm). Retrieved termites were isolated from debris by allowing them to cling to sheets of moistened paper towels. The average weight of each termite was 1.21 mg.
# To test for effectiveness of nootkatone, 1,10-dihydronootkatone and tetrahydronootkatone in repelling termites, a bioassay was conducted using Petri dishes (5 cm diameter and 1 cm height). To ensure adequate moisture for the termites, 1 ml of a hot agar solution (1.5% in H2O) was spread on the bottom of the Petri dish. After the agar cooled, sand that was treated as described below was spread on the bottom of the Petri dish. For the treated sand, purified 1,10-dihydronootkatone or tetrahydronootkatone were dissolved in 2 ml ethanol, and then diluted to achieve final concentrations of 1, 2, 5, 12.5, 25, 50, and 100 μg/g sand. The solution was mixed with 1 g sand that had been autoclaved and cooled. The control sand was autoclaved sand with only 200 μl ethanol added. One half of the surfaces in the Petri dishes were covered with 1 g treated sand, and the other half with 1 g untreated sand.
# The prepared Petri dishes were then used to evaluate the repelling activity against Formosan subterranean termites. Ten worker termites were added to each Petri dish, and the dishes were covered to eliminate light. Five replicate dishes were tested for each concentration and for the control. Termite position was recorded every 15 min during the first hour of testing by counting the number of termites observed on untreated sand. After the first hour, termite position was recorded each hour for 3 hr.
# Differences between the percent of termites on untreated sand and an expected value were statistically analyzed by a Chi-Square analysis, using an expected value of 50% and a significance level of p≦0.05.
structure (smiles),measurement,setting,value
"C=C(C)C1CCC2CC(=O)CC(C)C2(C)C1 (centres unmarked) [Dihydronootkatone, 1,4,4a,5,6,7,8,10-octahydro-6-isopropenyl-4,4a-dimethyl-2(1H)-naphthalenone]","percent of termites on untreated sand vs expected value of 50% (Chi-Square, p≦0.05)","2 μg/dish, 0.25 hour",−
same,"percent of termites on untreated sand vs expected value of 50% (Chi-Square, p≦0.05)","2 μg/dish, 0.5 hour",−
same,"percent of termites on untreated sand vs expected value of 50% (Chi-Square, p≦0.05)","2 μg/dish, 0.75 hour",−
same,"percent of termites on untreated sand vs expected value of 50% (Chi-Square, p≦0.05)","2 μg/dish, 1 hour",−
same,"percent of termites on untreated sand vs expected value of 50% (Chi-Square, p≦0.05)","2 μg/dish, 2 hour",−
same,"percent of termites on untreated sand vs expected value of 50% (Chi-Square, p≦0.05)","2 μg/dish, 3 hour",−
same,"percent of termites on untreated sand vs expected value of 50% (Chi-Square, p≦0.05)","5 μg/dish, 0.25 hour",−
same,"percent of termites on untreated sand vs expected value of 50% (Chi-Square, p≦0.05)","5 μg/dish, 0.5 hour",−
same,"percent of termites on untreated sand vs expected value of 50% (Chi-Square, p≦0.05)","5 μg/dish, 0.75 hour",−
same,"percent of termites on untreated sand vs expected value of 50% (Chi-Square, p≦0.05)","5 μg/dish, 1 hour",−
same,"percent of termites on untreated sand vs expected value of 50% (Chi-Square, p≦0.05)","5 μg/dish, 2 hour",−
same,"percent of termites on untreated sand vs expected value of 50% (Chi-Square, p≦0.05)","5 μg/dish, 3 hour",−
same,"percent of termites on untreated sand vs expected value of 50% (Chi-Square, p≦0.05)","12.5 μg/dish, 0.25 hour",+
same,"percent of termites on untreated sand vs expected value of 50% (Chi-Square, p≦0.05)","12.5 μg/dish, 0.5 hour",+
same,"percent of termites on untreated sand vs expected value of 50% (Chi-Square, p≦0.05)","12.5 μg/dish, 0.75 hour",+
same,"percent of termites on untreated sand vs expected value of 50% (Chi-Square, p≦0.05)","12.5 μg/dish, 1 hour",+
same,"percent of termites on untreated sand vs expected value of 50% (Chi-Square, p≦0.05)","12.5 μg/dish, 2 hour",+
same,"percent of termites on untreated sand vs expected value of 50% (Chi-Square, p≦0.05)","12.5 μg/dish, 3 hour",+
same,"percent of termites on untreated sand vs expected value of 50% (Chi-Square, p≦0.05)","25 μg/dish, 0.25 hour",−
same,"percent of termites on untreated sand vs expected value of 50% (Chi-Square, p≦0.05)","25 μg/dish, 0.5 hour",+
same,"percent of termites on untreated sand vs expected value of 50% (Chi-Square, p≦0.05)","25 μg/dish, 0.75 hour",+
same,"percent of termites on untreated sand vs expected value of 50% (Chi-Square, p≦0.05)","25 μg/dish, 1 hour",+
same,"percent of termites on untreated sand vs expected value of 50% (Chi-Square, p≦0.05)","25 μg/dish, 2 hour",+
same,"percent of termites on untreated sand vs expected value of 50% (Chi-Square, p≦0.05)","25 μg/dish, 3 hour",+
same,"percent of termites on untreated sand vs expected value of 50% (Chi-Square, p≦0.05)","50 μg/dish, 0.25 hour",+
same,"percent of termites on untreated sand vs expected value of 50% (Chi-Square, p≦0.05)","50 μg/dish, 0.5 hour",+
same,"percent of termites on untreated sand vs expected value of 50% (Chi-Square, p≦0.05)","50 μg/dish, 0.75 hour",+
same,"percent of termites on untreated sand vs expected value of 50% (Chi-Square, p≦0.05)","50 μg/dish, 1 hour",+
same,"percent of termites on untreated sand vs expected value of 50% (Chi-Square, p≦0.05)","50 μg/dish, 2 hour",+
same,"percent of termites on untreated sand vs expected value of 50% (Chi-Square, p≦0.05)","50 μg/dish, 3 hour",+
same,"percent of termites on untreated sand vs expected value of 50% (Chi-Square, p≦0.05)","100 μg/dish, 0.25 hour",+
same,"percent of termites on untreated sand vs expected value of 50% (Chi-Square, p≦0.05)","100 μg/dish, 0.5 hour",+
same,"percent of termites on untreated sand vs expected value of 50% (Chi-Square, p≦0.05)","100 μg/dish, 0.75 hour",+
same,"percent of termites on untreated sand vs expected value of 50% (Chi-Square, p≦0.05)","100 μg/dish, 1 hour",+
same,"percent of termites on untreated sand vs expected value of 50% (Chi-Square, p≦0.05)","100 μg/dish, 2 hour",+
same,"percent of termites on untreated sand vs expected value of 50% (Chi-Square, p≦0.05)","100 μg/dish, 3 hour",+
same,factor by which the effective termite-repellent concentration is lower than that of nootkatone,relative to nootkatone,8
same,concentration effective as termite repellent,time periods up to 3 hr,12.5 µg
